Assay results reported in patent US6583147B1, “Pyrazolopyrimidinone derivatives for the treatment of impotence” (Dong A Pharm Co., Ltd., priority 1998, dated 2003).
≈ marks a conversion by molar mass, not a printed value. Like-named read-outs stand apart in the source and are kept apart here.

Assays:
[1] = Solubility in buffer solution in pH=2&5; assay type: physicochemical; conditions: for solubility at 30 min: 20 °C, thermodynamic from solid
Procedure: According to that defined in the Korea Pharmacopoeia, citrate-HCl buffer (pH 2) and citrate-NaOH buffer (pH 5) solutions were added to the powdered compounds of formula 1, respectively. After subsequent severe shaking for 30 sec every 5 min in […] for 30 min, the level of compounds in the filtrate was measured by high performance liquid chromatography.

[2] = Metabolism in rat liver (9,000xg supernatant fraction with NADPH); assay type: in vitro ADME; conditions: 10 ug/ml, 37° C., 1 hr, rat liver 9,000xg supernatant with NADPH generating solution
Procedure: In order to evaluate the extent of metabolism of the compounds of formula 1, the metabolism in rat liver was studied as below similar to the reported method (C. L. Litterist, E. G. Mimnaugh, R. I. Reagan and T. G. Gram., Drug. Metabol. Disposit., 1975, 3, 259-265). In short, the disappearance of compounds after incubation in 9, 000×g supernatant fraction of rat liver homogenate in the presence of NADPH (reduced nicotinamide adenine dinucleotide phosphate) was evaluated.
First, Sprague-Dawley rat (Korea Experiment Animals, SPF) liver was isolated after perfusion through portal vein with 0.1 M phosphate buffer of pH 7.0 using tissue homogenizer at 4° C. After centrifugation at 9,000×g for 20 min, the supernatants were collected.
The compound stock solution was spiked (10 ug/ml) into each of the eppendorf tubes containing 1 ml of the mixed solution composing 1 volume of supernatants and 2 volumes of generating solution. The generating solution contains 1 mM NADP, 10 mM glucose-6-phosphate, 50 mM nicotinamide and 5 MM MgCl2 in 0.1 M phosphate buffer of pH 7.0. After vortex-mixing, each test tube was incubated in a water bath kept at 37° C. After 1 hr, was added acetonitrile to the reaction mixture and centrifuged. 100 ul of aliquot of the supernatant was sampled from each test tube for measuring the remnants by high performance liquid chromatography.

[3] = Acute oral toxicity test in rats; conditions: SD, rat, in vivo
[4] = target: T1, Phosphodiesterase-5 enzyme (PDE 5) (Homo sapiens, UniProt O76074); assay: Test for phosphodiesterase-5 (PDE 5) activity; assay type: biochemical; conditions: PDE 5 fraction from human corpus cavernosal tissues
T1 construct: separated by HPLC (Mono Q anion exchange column) with concentration gradient of 0-500 mM NaCl to elute PDE isozymes; from tissue; host or cells: human corpus cavernosal tissue

[5] = target: T2, Phosphodiesterase-3 enzyme (PDE 3) (Oryctolagus cuniculus, UniProt G1ST54); assay: Test for phosphodiesterase-3 (PDE 3) activity; assay type: biochemical; conditions: PDE 3 fraction from platelets of a rabbit
T2 construct: The supernatant was separated by DEAE-cellulose column chromatography (Whatman DE52 bead); from tissue; host or cells: rabbit platelets
T2 sequence (G1ST54 1-1128): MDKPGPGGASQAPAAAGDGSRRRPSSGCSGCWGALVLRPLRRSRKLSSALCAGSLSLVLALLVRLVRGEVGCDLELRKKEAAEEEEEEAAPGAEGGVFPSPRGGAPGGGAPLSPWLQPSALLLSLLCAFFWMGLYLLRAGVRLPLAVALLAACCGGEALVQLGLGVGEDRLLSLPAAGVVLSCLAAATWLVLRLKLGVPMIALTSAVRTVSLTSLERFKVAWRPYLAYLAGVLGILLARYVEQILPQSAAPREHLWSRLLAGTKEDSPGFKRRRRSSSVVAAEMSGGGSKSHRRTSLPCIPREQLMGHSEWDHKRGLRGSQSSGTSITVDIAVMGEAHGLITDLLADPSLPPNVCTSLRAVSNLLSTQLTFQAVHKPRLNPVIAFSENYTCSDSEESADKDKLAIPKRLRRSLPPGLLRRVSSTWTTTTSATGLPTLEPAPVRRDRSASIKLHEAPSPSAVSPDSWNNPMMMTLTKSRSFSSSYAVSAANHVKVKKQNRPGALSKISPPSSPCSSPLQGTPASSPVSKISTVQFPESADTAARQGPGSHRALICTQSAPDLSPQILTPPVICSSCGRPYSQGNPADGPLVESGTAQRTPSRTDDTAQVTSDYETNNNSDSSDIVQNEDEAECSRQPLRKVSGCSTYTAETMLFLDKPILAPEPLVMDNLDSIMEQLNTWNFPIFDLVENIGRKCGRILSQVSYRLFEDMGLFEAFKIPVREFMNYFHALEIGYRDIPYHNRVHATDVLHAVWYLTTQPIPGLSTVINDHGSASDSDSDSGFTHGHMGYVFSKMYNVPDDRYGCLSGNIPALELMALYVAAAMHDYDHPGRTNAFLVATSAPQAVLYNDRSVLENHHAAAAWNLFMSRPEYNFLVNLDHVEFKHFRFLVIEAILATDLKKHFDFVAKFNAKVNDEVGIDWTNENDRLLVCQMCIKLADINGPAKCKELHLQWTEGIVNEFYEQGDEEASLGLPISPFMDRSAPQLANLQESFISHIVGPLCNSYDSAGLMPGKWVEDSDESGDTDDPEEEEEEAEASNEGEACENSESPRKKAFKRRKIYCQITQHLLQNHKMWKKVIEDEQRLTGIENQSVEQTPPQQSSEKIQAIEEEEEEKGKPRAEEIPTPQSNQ
Outline: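 PDE3 taken from rabbit platelets as a DEAE-cellulose fraction, incubated with inhibitor and [3H]-cAMP or [3H]-cGMP (500 nM) for about 1 h at 30° C, pH 7.4. Product converted by snake venom or 5′-nucleotidase, unreacted substrate removed on anion-exchange resin, supernatant radioactivity counted by β-counter.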

rats = assay: Penile erection test using rats; assay type: in vivo, rat; conditions: oral single dose 10 mg/kg in 0.5% methyl cellulose, observed for 2 hours
[6] = system: men with erectile dysfunction of organic cause; conditions: oral administration; cited from earlier work
[7] = target: Phosphodiesterase-6 enzyme (PDE 6) (Aquarana catesbeiana, UniProt Z9LGG0MB32+Z9OH76POJ0); assay: Test for phosphodiesterase-6 (PDE 6) activity; assay type: biochemical, bullfrog; conditions: PDE 6 fraction from retina of bullfrogs, trypsin-activated
[8] = citrate-HCl buffer, pH 2, aqueous buffer, citrate-HCl buffer (pH 2), read-out: solubility pH 2
[9] = citrate-NaOH buffer, pH 5, aqueous buffer, citrate-NaOH buffer (pH 5), read-out: solubility pH 5
[10] = 1 g/kg, rats, oral single dose, read-out: lethal dose (LD50) of oral administration

SMILES	solubility pH 2 ([1]; citrate-HCl buffer (pH 2)) [ug/ml]	solubility at 30 min [1, 8] [µg/mL]	solubility pH 5 ([1]; citrate-NaOH buffer (pH 5)) [ug/ml]	solubility at 30 min [1, 9] [µg/mL]	remnants (%) [2] [%]	LD50 [3, 10] [mg/kg]	IC50 [4] [nM]	IC50 [5] [nM]	PEI (penile erection index) (rats)	genital grooming (number of genital groomings) (rats)	LD50 ([3]; po) [mg/kg]	response rate [6]	IC50 [7] [µg/mL]
CCOc1ccc(S(=O)(=O)NCC2CCCN2C)cc1-c1nc2c(CC(C)C)nn(C)c2c(=O)[nH]1 (stereo not shown) [Example 58, 5-[2-ethoxy-5-(1-methyl-2-pyrrolidinylmethylamidosulfonyl)phenyl]-1-methyl-3-isobutyl-1,6-dihydro-7H-pyrazolo(4,3-d)pyrimidin-7-one]	3722	3720 to 5360 (≈ 7.4 to 10.7 mM)	9003	4920 to 14800 (≈ 9.79 to 29.4 mM)	93.5	> 1000	16	> 199000	275.0 ± 170.8	3.0 ± 1.8			
CCCOc1ccc(S(=O)(=O)NCCC2CCCN2C)cc1-c1nc2c(CCC)nn(C)c2c(=O)[nH]1 (stereo not shown) [Example 68, 5-[2-propyloxy-5-(1-methyl-2-pyrrolidinylethylamidosulfonyl)phenyl]-1-methyl-3-propyl-1,6-dihydro-7H-pyrazolo(4,3-d)pyrimidin-7-one]	5356	3720 to 5360 (≈ 7.2 to 10.4 mM)			93.0		8.85	70100	233.3 ± 152.8	3.0 ± 2.0	> 1000		
CCCOc1ccc(S(=O)(=O)NCC2CCN(C)C2)cc1-c1nc2c(CCC)nn(C)c2c(=O)[nH]1 (stereo not shown) [Example 60, 5-[2-propyloxy-5-(1-methyl-3-pyrrolidinylmethylamidosulfonyl)phenyl]-1-methyl-3-propyl-1,6-dihydro-7H-pyrazolo(4,3-d)pyrimidin-7-one]	4497	3720 to 5360 (≈ 7.4 to 10.7 mM)	4923	4920 to 14800 (≈ 9.79 to 29.4 mM)	78.2	> 1000	34.7	> 199000	300.0 ± 81.7	2.8 ± 0.5			
CCCOc1ccc(S(=O)(=O)Nc2ccncc2)cc1-c1nc2c(CCC)nn(C)c2c(=O)[nH]1 [Example 35, 5-[2-propyloxy-5-(4-pyridylamidosulfonyl)phenyl]-1-methyl-3-propyl-1,6-dihydro-7H-pyrazolo(4,3-d)pyrimidin-7-one]		11 (≈ 0.0228 mM)		1 (≈ 0.00207 mM)	90.6	> 1000	0.935	> 207000	200.0 ± 0.0	2.0 ± 0.0			
CCCOc1ccc(S(=O)(=O)NCc2cccnc2)cc1-c1nc2c(CCC)nn(C)c2c(=O)[nH]1 [Example 49, 5-[2-propyloxy-5-(3-pyridylmethylamidosulfonyl)phenyl]-1-methyl-3-propyl-1,6-dihydro-7H-pyrazolo(4,3-d)pyrimidin-7-one]		43 (≈ 0.0866 mM)			71.3	> 1000	0.3	25200	200.0 ± 173.2	1.3 ± 0.6			
CCCc1nn(C)c2c(=O)[nH]c(-c3cc(S(=O)(=O)N4CCN(C)CC4)ccc3OCC)nc12 [sildenafil, reference compound]		1580 (≈ 3.34 mM)		480 (≈ 1.01 mM)				71400		3.1 ± 1.2		around 80%	0.0767 ± 0.00153 (≈ 0.000162 mM)
CCOc1ccc(S(=O)(=O)NCc2ccccn2)cc1-c1nc2c(CC(C)C)nn(C)c2c(=O)[nH]1 [Example 51, 5-[2-ethoxy-5-(2-pyridylmethylamidosulfonyl)phenyl]-1-methyl-3-isobutyl-1,6-dihydro-7H-pyrazolo(4,3-d)pyrimidin-7-one]		215 (≈ 0.433 mM)		1 (≈ 0.00201 mM)	70.4	> 1000	1.5	> 201000	233.3 ± 152.8	3.0 ± 2.0			
CCCOc1ccc(S(=O)(=O)NCC2CCCN2C)cc1-c1nc2c(CCC)nn(C)c2c(=O)[nH]1 (stereo not shown) [Example 56, 5-[2-propyloxy-5-(1-methyl-2-pyrrolidinylmethylamidosulfonyl)phenyl]-1-methyl-3-propyl-1,6-dihydro-7H-pyrazolo(4,3-d)pyrimidin-7-one]	3918	3720 to 5360 (≈ 7.4 to 10.7 mM)	6361	4920 to 14800 (≈ 9.79 to 29.4 mM)	83.9	> 1000	14.2	> 199000	200.0 ± 81.7	2.0 ± 0.0			
